In US20240368120A1 (Terns Pharmaceuticals, Inc., priority 2023, published 2024) one finds EC50 and Emax data, which are given here for 24 compounds.

The test concerns the target T1, human GLP-1R receptor (Homo sapiens, UniProt P43220).
T1 construct: expressed in transfected cells
In words: GLP-1R low expression cell assay (cAMP TR-FRET, CHO-K1_hGLP-1Rlow_clone10 cells). It counts as cell-based. To be noted: for EC50: cAMP TR-FRET, 30 min at 25° C.; for Emax: maximum activation relative to control GLP-1 peptide agonist. In outline: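 Readout is cAMP TR-FRET after 30 min compound stimulation at 25 °C of a low-GLP-1R-expressing CHO-K1 clone (1,000 cells/well), with 10-point 3-fold serial dilutions. Percent activation versus a control GLP-1 peptide, from duplicates, was Hill-fitted to give EC50.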
(Time-resolved FRET reads energy transfer from a long-lived donor to a nearby acceptor.)

T1 sequence (P43220 24-463): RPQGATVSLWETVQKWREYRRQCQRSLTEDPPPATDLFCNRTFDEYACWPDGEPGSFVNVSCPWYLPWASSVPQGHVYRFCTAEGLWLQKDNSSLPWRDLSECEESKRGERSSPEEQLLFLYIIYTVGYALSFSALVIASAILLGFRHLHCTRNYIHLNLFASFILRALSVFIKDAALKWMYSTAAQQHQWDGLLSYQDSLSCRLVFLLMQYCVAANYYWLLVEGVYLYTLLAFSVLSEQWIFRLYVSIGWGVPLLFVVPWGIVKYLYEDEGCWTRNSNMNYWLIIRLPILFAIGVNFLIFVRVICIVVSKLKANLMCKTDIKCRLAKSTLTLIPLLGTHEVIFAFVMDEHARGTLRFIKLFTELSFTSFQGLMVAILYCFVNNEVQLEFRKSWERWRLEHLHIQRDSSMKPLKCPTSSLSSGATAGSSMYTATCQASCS

What is called EC50 is the concentration needed to bring the measured effect to its halfway point. Lower therefore signals an effect from little substance. A word on the Emax: it is the maximal effect, on the per cent scale that the assay sets. Turning to `Cn1c(CN2CCC(c3cccc(OCc4ccc(Cl)cc4F)c3)CC2)nc2c(OC(F)F)cc(N3CC(=O)NS3(=O)=O)cc21` [Compound 281, 5-(2-((4-(3-((4-Chloro-2-fluorobenzyl)oxy)phenyl)piperidin-1-yl)methyl)-4-(difluoromethoxy)-1-methyl-1H-benzo[d]imidazol-6-yl)-1,2,5-thiadiazolidin-3-one 1,1-dioxide], the 50% effective concentration (EC50) is over 1000 nM and the maximal effect (Emax) lay within 50 to 85%.

For `CCOc1cc(-c2nnn[nH]2)cc2c1nc(CN1CCC(c3cccc(OCc4ccc(C#N)cc4F)n3)CC1)n2C` [Compound 273, 4-(((6-(1-((4-ethoxy-1-methyl-6-(1H-tetrazol-5-yl)-1H-benzo[d]imidazol-2-yl)methyl)piperidin-4-yl)pyridin-2-yl)oxy)methyl)-3-fluorobenzonitrile], the half-maximal effective concentration (EC50) was under 10 nM and the maximal effect (Emax) is over 85%.

`Cn1c(CN2CCC(c3cccc(OCc4ccc(Cl)cc4F)n3)CC2)nc2c(OC(F)(F)CF)cc(C(=O)O)cc21` [Compound 235, 2-((4-(6-((4-Chloro-2-fluorobenzyl)oxy)pyridin-2-yl)piperidin-1-yl)methyl)-1-methyl-4-(1,1,2-trifluoroethoxy)-1H-benzo[d]imidazole-6-carboxylic acid] returned a 50% effective concentration (EC50) of 10 to 100 nM and a maximal response (Emax) of over 85%.

The compound `CCCOc1cc(C(=O)O)cc2c1nc(CN1CCC(c3cccc(OCc4ccc(Cl)cc4F)n3)CC1)n2C` [Compound 322, 2-((4-(6-((4-chloro-2-fluorobenzyl)oxy)pyridin-2-yl)piperidin-1-yl)methyl)-1-methyl-4-propoxy-1H-benzo[d]imidazole-6-carboxylic acid] returned a 50% effective concentration (EC50) of 10 to 100 nM and an Emax of over 85%.

For `COc1cc(C(=O)O)c(F)c2c1nc(CN1CCC(c3ccc(F)c(OCc4ccc(C#N)cc4F)c3)CC1)n2C` [Compound 339, 2-((4-(3-((4-Cyano-2-fluorobenzyl)oxy)-4-fluorophenyl)piperidin-1-yl)methyl)-7-fluoro-4-methoxy-1-methyl-1H-benzo[d]imidazole-6-carboxylic acid], the EC50 was in the range of 100 to 1000 nM and the Emax was over 85%.

`Cn1c(CN2CCC(c3cccc(OCc4ccc(Cl)cc4F)n3)CC2)nc2c(OC[C@@H]3CCO3)cc(C(=O)O)cc21` [Compound 211, (S)-2-((4-(6-((4-Chloro-2-fluorobenzyl)oxy)pyridin-2-yl)piperidin-1-yl)methyl)-1-methyl-4-(oxetan-2-ylmethoxy)-1H-benzo[d]imidazole-6-carboxylic acid]: the half-maximal effective concentration (EC50) was 10 to 100 nM and the Emax is over 85%.

`CC(CF)Oc1cc(C(=O)O)cc2c1nc(CN1CCC(c3cccc(OCc4ccc(Cl)cc4F)n3)CC1)n2C` (single isomer, unassigned) [Compound 262]: the EC50 lay within 10 to 100 nM and the maximal effect (Emax) was over 85%.

`COc1cc(C(=O)O)cc2c1nc(CN1CCN(c3cccc(OCc4ccc(Cl)cc4F)n3)CC1)n2C` [Compound 383, 2-((4-(6-((4-Chloro-2-fluorobenzyl)oxy)pyridin-2-yl)piperazin-1-yl)methyl)-4-methoxy-1-methyl-1H-benzo[d]imidazole-6-carboxylic acid] gave a 50% effective concentration (EC50) of 10 to 100 nM and an Emax of over 85%.

`Cn1c(CN2CCC(Oc3cccc(COc4ccc(C#N)cc4F)n3)CC2)nc2c(OC(F)F)cc(C(=O)O)cc21` [Compound 149, 2-((4-((6-((4-Cyano-2-fluorophenoxy)methyl)pyridin-2-yl)oxy)piperidin-1-yl)methyl)-4-(difluoromethoxy)-1-methyl-1H-benzo[d]imidazole-6-carboxylic acid] returned a concentration giving a half-maximal response (EC50) of 10 to 100 nM and an Emax of over 85%.

Compound `Cn1c(CN2CCC(c3cccc(OCc4ccc(Cl)cc4F)n3)CC2)nc2c(Cl)cc(C(=O)O)cc21` [Compound 218, 4-chloro-2-((4-(6-((4-chloro-2-fluorobenzyl)oxy)pyridin-2-yl)piperidin-1-yl)methyl)-1-methyl-1H-benzo[d]imidazole-6-carboxylic acid] displayed an EC50 of 10 to 100 nM and an Emax of over 85%.

Compound `O=C(O)c1ccc2nc(CN3CCC(c4cccc(OCc5ccc(Cl)cc5F)n4)CC3)c3c(c2c1)COCC3` [Compound 244, 5-((4-(6-((4-chloro-2-fluorobenzyl)oxy)pyridin-2-yl)piperidin-1-yl)methyl)-3,4-dihydro-1H-pyrano[4,3-c]quinoline-9-carboxylic acid] came in with a 50% effective concentration (EC50) of over 1000 nM and an Emax of under 25%.

`Cn1c(Cc2ccc(-c3cccc(OCc4ccc(C#N)cc4F)n3)cc2F)nc2c(OC(F)F)cc(C(=O)O)cc21` [Compound 120, 2-(4-(6-((4-Cyano-2-fluorobenzyl)oxy)pyridin-2-yl)-2-fluorobenzyl)-4-(difluoromethoxy)-1-methyl-1H-benzo[d]imidazole-6-carboxylic acid] came in with an EC50 of under 10 nM and an Emax of over 85%.

For `COc1cc(C(=O)O)cc2c1nc([C@H](C)N1CCC(c3cccc(OCc4ccc(C#N)cc4F)n3)CC1)n2C` [Compound 102, (S)-2-(1-(4-(6-((4-Cyano-2-fluorobenzyl)oxy)pyridin-2-yl)piperidin-1-yl)ethyl)-4-methoxy-1-methyl-1H-benzo[d]imidazole-6-carboxylic acid], the concentration giving a half-maximal response (EC50) was 10 to 100 nM and the maximal response (Emax) was over 85%.

In turn, `Cn1c(CN2CCC(c3cccc(OCc4ccc(Cl)cc4F)c3)CC2)nc2c(OC(F)F)cc(NCC(=O)O)cc21` [Compound 264, (2-((4-(3-((4-chloro-2-fluorobenzyl)oxy)phenyl)piperidin-1-yl)methyl)-4-(difluoromethoxy)-1-methyl-1H-benzo[d]imidazol-6-yl)glycine] came in with a 50% effective concentration (EC50) of over 1000 nM and a maximum response (Emax) of 25 to 50%.

Compound `CCOc1cc(C(=O)O)cc2c1nc(CN1CCC(c3cccc4c3OC[C@@H](c3ccc(Cl)cc3F)O4)CC1)n2C` [Compound 269, (R)-2-((4-(2-(4-chloro-2-fluorophenyl)-2,3-dihydrobenzo[b][1,4]dioxin-5-yl)piperidin-1-yl)methyl)-4-ethoxy-1-methyl-1H-benzo[d]imidazole-6-carboxylic acid] had a half-maximal effective concentration (EC50) of 100 to 1000 nM and a maximum response (Emax) of over 85%.

The compound `Cn1c(CN2CCC(c3nccc(OCc4ccc(Cl)cc4F)n3)CC2)nc2c(OC(F)F)cc(C(=O)O)cc21` [Compound 168, 2-((4-(4-((4-Chloro-2-fluorobenzyl)oxy)pyrimidin-2-yl)piperidin-1-yl)methyl)-4-(difluoromethoxy)-1-methyl-1H-benzo[d]imidazole-6-carboxylic acid] yielded a half-maximal effective concentration (EC50) of 10 to 100 nM and an Emax of over 85%.

Consider `COc1cc(C(=O)O)cc2c1nc(CN1CCC(c3cccc(OCc4ccc(C#N)cc4F)n3)CC1)n2C(F)F` [Compound 147, 2-((4-(6-((4-Cyano-2-fluorobenzyl)oxy)pyridin-2-yl)piperidin-1-yl)methyl)-1-(difluoromethyl)-4-methoxy-1H-benzo[d]imidazole-6-carboxylic acid], for which the EC50 was 100 to 1000 nM and the Emax is over 85%.

As to `Cn1c(CN2CCC(c3cccc(OCc4ccc(C#N)cc4F)n3)CC2)nc2c(C(C)(C)O)cc(C(=O)O)cc21` [Compound 126, 2-((4-(6-((4-cyano-2-fluorobenzyl)oxy)pyridin-2-yl)piperidin-1-yl)methyl)-4-(2-hydroxypropan-2-yl)-1-methyl-1H-benzo[d]imidazole-6-carboxylic acid], the EC50 is over 1000 nM and the Emax fell in the range of 50 to 85%.

Consider `CCOc1cc(CC(=O)O)cc2c1nc(CN1CCC(c3cccc(OCc4ccc(C#N)cc4F)n3)CC1)n2C` [Compound 259, 2-(2-((4-(6-((4-Cyano-2-fluorobenzyl)oxy)pyridin-2-yl)piperidin-1-yl)methyl)-4-ethoxy-1-methyl-1H-benzo[d]imidazol-6-yl) acetic acid], for which the 50% effective concentration (EC50) lay within 100 to 1000 nM and the Emax is over 85%.

For `Cn1c(CN2CCC(c3cccc(OCc4ccc(Cl)cc4F)n3)CC2)nc2c3c(c(C(=O)O)cc21)OCCO3` [Compound 311, 2-((4-(6-((4-chloro-2-fluorobenzyl)oxy)pyridin-2-yl)piperidin-1-yl)methyl)-3-methyl-7,8-dihydro-3H-[1,4]dioxino[2′,3′:3,4]benzo[1,2-d]imidazole-5-carboxylic acid], the EC50 lay within 10 to 100 nM and the maximal response (Emax) is over 85%.

For `CCOc1cc(C(=O)O)cc2c1nc(CN1CCC(c3cccc(OCc4ccc(Cl)cc4F)n3)CC1)n2C` [Compound 358, 2-((4-(6-((4-Chloro-2-fluorobenzyl)oxy)pyridin-2-yl)piperidin-1-yl)methyl)-4-ethoxy-1-methyl-1H-benzo[d]imidazole-6-carboxylic acid], the maximal effect (Emax) was over 85%.

As to `COc1cc(C#N)ncc1COc1cccc(C2CCN(Cc3nc4c(OC(F)F)cc(C(=O)O)cc4n3C)CC2)n1` [Compound 354], the EC50 was 10 to 100 nM and the Emax is over 85%.

For `CCOc1cc(C(=O)O)cc2c1nc(CN1CCC(c3cccc4c3O[C@@H](c3ccc(C#N)cc3F)CO4)CC1)n2C` [Compound 287, (S)-2-((4-(3-(4-Cyano-2-fluorophenyl)-2,3-dihydrobenzo[b][1,4]dioxin-5-yl)piperidin-1-yl)methyl)-4-ethoxy-1-methyl-1H-benzo[d]imidazole-6-carboxylic acid], the EC50 is over 1000 nM and the maximal response (Emax) is over 85%.

For the compound `Cn1c(CN2CCC(c3ncccc3OCc3ccc(C#N)cc3F)CC2)nc2c(OC(F)F)cc(C(=O)O)cc21` [Compound 158, 2-((4-(3-((4-Cyano-2-fluorobenzyl)oxy)pyridin-2-yl)piperidin-1-yl)methyl)-4-(difluoromethoxy)-1-methyl-1H-benzo[d]imidazole-6-carboxylic acid], the half-maximal effective concentration (EC50) is over 1000 nM and the Emax fell in the range of 50 to 85%.
